Experimental data from US20200246284A1 (Academia Sinica, priority 2015, published 2020).
“And” between values parts separate entries of the source, which are not always exact repeats. Identical values can stand only once. Like-named read-outs stand apart in the source and are kept apart here.

How the values were obtained:
[1] = test system: 16HBE SV40+ bronchial epithelium; type: cell-based, human
[2] = test system: BEAS2B SV40 bronchial epithelium; type: cell-based, human
NOSE ovarian epithelium = type: cell-based, human
CALU-6 = type: cell-based, human
H125 = type: cell-based, human
H596 = type: cell-based, human
A549 = type: cell-based, human
H187 = experiment: Cytotoxicity SCLC 72 hr alamar blue; type: cell-based, human
H211 = experiment: Cytotoxicity SCLC 72 hr alamar blue; type: cell-based, human
H249 = experiment: Cytotoxicity SCLC 72 hr alamar blue; type: cell-based, human
H678 = experiment: Cytotoxicity SCLC 72 hr alamar blue; type: cell-based, human
H889 = experiment: Cytotoxicity SCLC 72 hr alamar blue; type: cell-based, human; conditions: read-out: IC50
SMS-CTR rhabdomyosarcoma = experiment: Cytotoxicity sarcoma; type: cell-based; conditions: Homo sapiens; SMS-CTR embryonal type
[3] = test system: lymphoma cell lines (DLBCL GBC and ABC, mantle cell lymphoma); experiment: Cytotoxicity, panel of lymphoma cell lines (Tables 23, 24, 26); type: cell-based; conditions: Homo sapiens
C57Bl/6 mice = experiment: Complete blood counts in healthy mice; type: in vivo, mouse
Text: This is particularly striking in the case of neutrophils, red blood cells and platelets, whose levels are the most frequent dose limiting toxicities seen in clinic evaluation of alkylating drug therapy. There was a 3-4-fold increase in monocytes. The only negative effect was a modest reduction in WBC numbers due to mild lymphopenia at day 10 in the BO-treated group.

Caco-2 permeability = type: in vitro ADME, human; conditions: human, Caco-2, 10 μM
Text: (§1) The Caco-2 permeability assay is considered to be the industry gold standard for in vitro prediction of in vivo human intestinal permeability and bioavailability of orally administered drugs. The Caco-2 permeability assay uses an established method for predicting the absorption of therapeutic compounds across the GIT by measuring the rate of transport across a contiguous Caco-2 cell monolayer. […] The Caco-2 assay measures the passage of a test compound from a donor chamber into an acceptor chamber through a porous membrane on which a confluent Caco-2 monolayer forms a cellular barrier.

Caco-2 cell monolayers = experiment: Caco-2 permeability; type: in vitro ADME, human
Text: as §1

[4] = Plasma protein binding, equilibrium dialysis; type: in vitro ADME; conditions: rat plasma, read-out: % bound (converted)
Text: In drug discovery, the information on drug-plasma protein binding is valuable in evaluating and understanding, the absorption, distribution, metabolism and excretion (ADME)-related properties and the pharmacokinetic profile of drug candidates.

[5] = test system: primary Pre-B-ALL cells in NSG mice; experiment: Primary pre-B-ALL xenograft; type: in vivo, mouse; conditions: Q10D2x from day 7
H526 xenograft = experiment: SCLC H526 xenograft in nude mice; type: in vivo, mouse; conditions: 40 mg/kg i.v.
Granta = experiment: Combination with BO-1055, MCL (Tables 28, 29); type: cell-based, human; conditions: read-out: IC50 single drug
NECB1 = experiment: Combination with BO-1055, MCL (Tables 28, 29); type: cell-based, human; conditions: read-out: IC50 single drug
Ly3 (OCI-LY3) = conditions: human
Experimental: (§2) After 72 hours, the cultures were pulsed with Alamar Blue overnight, and the fluorescent intensity of resulted cultures was measured by a Synergy H1 plate-reader (BioTek Inc).

HBL1 = conditions: human
Experimental: as §2

Farage = experiment: cells; conditions: Homo sapiens, read-out: cytotoxicity IC50
hERG = hERG (Homo sapiens, UniProt Q12809); experiment: in vitro
SUDHL-5 = experiment: Cytotoxicity DLBCL; conditions: read-out: cytotoxicity IC50; SUDHL-5, DLBCL GCB
Z-138 = experiment: Cytotoxicity mantle cell lymphoma
Experimental: as §2

ICR mice = experiment: Acute intravenous 14-day toxicity; conditions: for Mortality (N/N): 14 days
[6] = test system: nude mice bearing prostate 22Rv/HL2 tumor xenografts; experiment: Pathological examination of organs and body weight, 22Rv/HL2 xenograft mice
[7] = 30 mg/kg i.v. every other day x5
[8] = day 10, 30 mg/kg i.v. days 1,3,5,8,10

Chain of hERG (Q12809 whole entry): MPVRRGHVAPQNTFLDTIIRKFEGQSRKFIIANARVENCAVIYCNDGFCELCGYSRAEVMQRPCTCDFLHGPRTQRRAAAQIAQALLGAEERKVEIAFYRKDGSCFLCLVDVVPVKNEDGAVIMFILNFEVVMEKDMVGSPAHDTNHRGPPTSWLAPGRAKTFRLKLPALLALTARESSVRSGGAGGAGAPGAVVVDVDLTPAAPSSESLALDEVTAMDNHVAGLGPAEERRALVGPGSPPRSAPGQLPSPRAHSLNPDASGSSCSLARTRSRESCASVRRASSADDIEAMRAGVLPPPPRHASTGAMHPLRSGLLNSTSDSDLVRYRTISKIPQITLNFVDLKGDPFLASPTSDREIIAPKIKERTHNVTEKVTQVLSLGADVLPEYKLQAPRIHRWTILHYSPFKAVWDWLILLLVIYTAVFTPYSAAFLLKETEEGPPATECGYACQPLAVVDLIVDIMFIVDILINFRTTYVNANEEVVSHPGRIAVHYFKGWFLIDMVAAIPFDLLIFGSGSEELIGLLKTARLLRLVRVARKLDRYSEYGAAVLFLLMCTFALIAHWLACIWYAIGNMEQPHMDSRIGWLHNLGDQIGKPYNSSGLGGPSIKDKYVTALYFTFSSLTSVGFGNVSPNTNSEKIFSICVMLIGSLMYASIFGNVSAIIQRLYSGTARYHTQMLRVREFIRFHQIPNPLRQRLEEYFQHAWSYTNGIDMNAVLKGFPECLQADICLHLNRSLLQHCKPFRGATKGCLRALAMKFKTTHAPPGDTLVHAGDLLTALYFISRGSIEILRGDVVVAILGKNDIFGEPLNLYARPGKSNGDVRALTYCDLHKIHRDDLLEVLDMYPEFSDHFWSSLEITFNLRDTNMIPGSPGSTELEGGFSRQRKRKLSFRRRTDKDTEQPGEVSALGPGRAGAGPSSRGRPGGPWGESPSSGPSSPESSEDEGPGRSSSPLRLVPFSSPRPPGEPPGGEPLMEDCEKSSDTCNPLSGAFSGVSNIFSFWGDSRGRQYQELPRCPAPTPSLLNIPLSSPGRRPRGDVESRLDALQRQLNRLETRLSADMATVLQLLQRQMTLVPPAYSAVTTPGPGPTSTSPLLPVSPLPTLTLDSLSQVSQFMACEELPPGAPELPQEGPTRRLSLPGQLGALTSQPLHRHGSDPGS

N.N.[Cl][Pt][Cl] [Cisplatin]
IC50 [1]: 3.6 µM
IC50 [2]: 4.1 µM
IC50 (NOSE ovarian epithelium): ≥ 25 µM
IC50 (CALU-6): 3.25 µM
IC50 (H125): 1.5 µM
IC50 (H596): ≥ 10 µM
IC50 (A549): ≥ 30 µM
IC50 (H187): 1.01 µM
IC50 (H211): 1.21 µM
IC50 (H249): 1.51 µM
IC50 (H678): 3.81 µM
IC50 (H889): 0.41 µM

CN(C)CCNC(=O)c1cccc(NC(=O)Nc2ccc(N(CCCl)CCCl)cc2)c1 [BO-1055, Ureidomustine]
IC50 (SMS-CTR rhabdomyosarcoma): 10 µM
IC50 ([3]; lines with WT Bcl2): ≥ 0.12 µM
IC50 ([3]; two resistant lines): > 10 µM
increase in monocytes (C57Bl/6 mice; [7]): 3-4 fold
suppression of hematologic parameters (C57Bl/6 mice; [7]): no significant suppression
HCT (C57Bl/6 mice; [8]): 46.30 ± 1.04%
HGB (C57Bl/6 mice; [8]): 13.08 ± 0.25 g/dL
MCHC (C57Bl/6 mice; [8]): 28.28 ± 0.42 g/dL
MCV (C57Bl/6 mice; [8]): 51.03 ± 1.25 fL
MPV (C57Bl/6 mice; [8]): 6.38 ± 0.09 fL
PDW (C57Bl/6 mice; [8]): 7.40 ± 0.24 fL
PLT (C57Bl/6 mice; [8]): 1108.3 ± 76.1 K/μL
RBC (C57Bl/6 mice; [8]): 9.08 ± 0.18 M/μL
RDW-CV (C57Bl/6 mice; [8]): 23.18 ± 0.64%
RDW-SD (C57Bl/6 mice; [8]): 32.48 ± 0.29 fL
WBC (C57Bl/6 mice; [8]): 5.34 ± 0.99 K/μL
Papp B→A at 10 μM (Caco-2 permeability): 7.05 ×10⁻⁶ cm/s
Papp (B to A) (Caco-2 cell monolayers; 10 μM): Papp (B to A) = 7.5 × 10−6 cm/sec
mass balance (Caco-2 cell monolayers; A→B and B→A directions): < 50%
Papp coefficient A→B (Caco-2 cell monolayers; Caco-2): not detected
fraction unbound at 2 h, 20 μM ([4]; 2 h): 0.0032
fraction unbound at 4 h, 20 μM ([4]; 4 h): 0.0031
fraction unbound at 6 h, 20 μM ([4]; 6 h): 0.0799
fraction unbound at 24 h, 20 μM ([4]; 24 h): 0.248
reduction of tumor growth [5]: 2 log
survival longer than control [5]: ~100 days
complete remission (CR) (H526 xenograft; 28 d): 3/4
complete remission (CR) (H526 xenograft; 32 d): 2/4
complete remission (CR) (H526 xenograft; 77 d): 1/4
IC50 (Granta): 5.26 µM and 5.5 µM and 6.55 µM
IC50 (NECB1): 7.42 µM and 7.78 µM and 8.52 µM
IC50 (Ly3 (OCI-LY3)): 3.5 µM
IC50 (HBL1): 0.87 µM
IC50 (Farage): 0.44 µM
IC50 (hERG): 12.6 ± 1.64 µM
IC50 (SUDHL-5): 4.14 µM
IC50 (Z-138; read-out: cytotoxicity IC50, Z-138, mantle cell lymphoma): 0.3 µM
IC50 (Z-138; read-out: mean IC50±SD, Z-138): 0.182 ± 0.15 µM
Post dosing deaths at >1 hr (ICR mice; 50 mg/kg): 0
Mortality (N/N) (ICR mice; 50 mg/kg i.v.): 0/6
Post dosing deaths at >1 hr (ICR mice; 60 mg/kg): 0
Mortality (N/N) (ICR mice; 60 mg/kg i.v.): 0/6
Post dosing deaths at >1 hr (ICR mice; 70 mg/kg): 1
Mortality (N/N) (ICR mice; 70 mg/kg i.v.): 1/6
Post dosing deaths at >1 hr (ICR mice; 80 mg/kg): 6
Mortality (N/N) (ICR mice; 80 mg/kg i.v.): all mice died and 6/6
Post dosing deaths at >1 hr (ICR mice; 100 mg/kg): 6
Mortality (N/N) (ICR mice; 100 mg/kg i.v.): 6/6
average body-weight ([6]; after cessation of treatment): recovered on day 35-40
pathological change in heart, liver, spleen, lung and kidney ([6]; day 42 after onset of drug administration): no apparent pathological change
